Experimental data taken from paper PMC8617627, “Novel DYRK1A Inhibitor Rescues Learning and Memory Deficits in a Mouse Model of Down Syndrome” (Pharmaceuticals, 2021).
Read-outs that look alike come from different tables or passages of the source.

Experiments:
Assay in all cases: Kinase profile (33P ATP filter binding)
Format in all cases: biochemical
[1] = biological target: CSK (Homo sapiens, UniProt P41240)
[2] = biological target: T1, ERK8 (Homo sapiens, UniProt Q8TD08); conditions: read-out: Remaining protein kinase activity
T1 sequence (Q8TD08 1-544): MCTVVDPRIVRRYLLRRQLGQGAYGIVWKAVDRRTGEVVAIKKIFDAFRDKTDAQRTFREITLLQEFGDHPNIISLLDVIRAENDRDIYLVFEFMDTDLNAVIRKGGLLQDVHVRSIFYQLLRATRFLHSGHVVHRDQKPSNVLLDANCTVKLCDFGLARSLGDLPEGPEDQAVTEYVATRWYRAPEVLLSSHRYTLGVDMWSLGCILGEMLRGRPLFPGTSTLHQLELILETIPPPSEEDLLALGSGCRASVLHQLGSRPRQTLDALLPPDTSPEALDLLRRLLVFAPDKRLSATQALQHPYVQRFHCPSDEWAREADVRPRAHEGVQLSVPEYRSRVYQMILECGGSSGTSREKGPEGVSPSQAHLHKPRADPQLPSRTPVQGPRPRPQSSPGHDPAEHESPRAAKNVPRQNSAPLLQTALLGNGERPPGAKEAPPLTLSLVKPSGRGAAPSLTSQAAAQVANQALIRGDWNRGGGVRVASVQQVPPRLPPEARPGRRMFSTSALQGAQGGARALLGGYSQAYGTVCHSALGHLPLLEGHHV

[3] = biological target: T2, PKD1 (Homo sapiens, UniProt Q15139); conditions: read-out: Remaining protein kinase activity
T2 sequence (Q15139 1-912): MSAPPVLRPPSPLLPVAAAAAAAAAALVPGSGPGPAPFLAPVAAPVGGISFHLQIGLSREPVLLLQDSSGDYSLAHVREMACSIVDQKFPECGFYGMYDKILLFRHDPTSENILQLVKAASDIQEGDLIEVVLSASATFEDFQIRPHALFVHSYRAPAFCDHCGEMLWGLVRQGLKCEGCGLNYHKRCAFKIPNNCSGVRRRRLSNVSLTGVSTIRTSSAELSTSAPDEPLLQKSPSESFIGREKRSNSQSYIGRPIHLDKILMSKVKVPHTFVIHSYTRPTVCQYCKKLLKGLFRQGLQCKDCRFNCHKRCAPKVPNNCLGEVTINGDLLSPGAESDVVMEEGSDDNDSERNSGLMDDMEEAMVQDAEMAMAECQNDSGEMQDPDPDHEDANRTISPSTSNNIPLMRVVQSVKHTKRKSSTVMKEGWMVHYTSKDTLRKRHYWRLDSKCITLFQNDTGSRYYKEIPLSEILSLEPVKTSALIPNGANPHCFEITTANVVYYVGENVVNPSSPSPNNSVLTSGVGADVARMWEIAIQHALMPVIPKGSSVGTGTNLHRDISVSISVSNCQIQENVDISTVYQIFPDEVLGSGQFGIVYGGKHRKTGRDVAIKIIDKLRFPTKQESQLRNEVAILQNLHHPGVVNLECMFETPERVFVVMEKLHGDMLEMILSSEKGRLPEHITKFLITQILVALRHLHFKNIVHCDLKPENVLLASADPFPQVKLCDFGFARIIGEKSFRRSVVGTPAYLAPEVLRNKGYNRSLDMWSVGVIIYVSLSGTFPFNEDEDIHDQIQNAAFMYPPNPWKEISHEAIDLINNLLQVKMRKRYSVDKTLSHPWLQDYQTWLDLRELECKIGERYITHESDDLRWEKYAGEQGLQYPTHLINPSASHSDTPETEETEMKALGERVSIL

[4] = biological target: HIPK3 (Homo sapiens, UniProt Q9H422); conditions: read-out: Remaining protein kinase activity
[5] = biological target: IGF-1R (Homo sapiens, UniProt P08069); conditions: read-out: Remaining protein kinase activity
Sequence of IGF-1R (P08069 31-1367): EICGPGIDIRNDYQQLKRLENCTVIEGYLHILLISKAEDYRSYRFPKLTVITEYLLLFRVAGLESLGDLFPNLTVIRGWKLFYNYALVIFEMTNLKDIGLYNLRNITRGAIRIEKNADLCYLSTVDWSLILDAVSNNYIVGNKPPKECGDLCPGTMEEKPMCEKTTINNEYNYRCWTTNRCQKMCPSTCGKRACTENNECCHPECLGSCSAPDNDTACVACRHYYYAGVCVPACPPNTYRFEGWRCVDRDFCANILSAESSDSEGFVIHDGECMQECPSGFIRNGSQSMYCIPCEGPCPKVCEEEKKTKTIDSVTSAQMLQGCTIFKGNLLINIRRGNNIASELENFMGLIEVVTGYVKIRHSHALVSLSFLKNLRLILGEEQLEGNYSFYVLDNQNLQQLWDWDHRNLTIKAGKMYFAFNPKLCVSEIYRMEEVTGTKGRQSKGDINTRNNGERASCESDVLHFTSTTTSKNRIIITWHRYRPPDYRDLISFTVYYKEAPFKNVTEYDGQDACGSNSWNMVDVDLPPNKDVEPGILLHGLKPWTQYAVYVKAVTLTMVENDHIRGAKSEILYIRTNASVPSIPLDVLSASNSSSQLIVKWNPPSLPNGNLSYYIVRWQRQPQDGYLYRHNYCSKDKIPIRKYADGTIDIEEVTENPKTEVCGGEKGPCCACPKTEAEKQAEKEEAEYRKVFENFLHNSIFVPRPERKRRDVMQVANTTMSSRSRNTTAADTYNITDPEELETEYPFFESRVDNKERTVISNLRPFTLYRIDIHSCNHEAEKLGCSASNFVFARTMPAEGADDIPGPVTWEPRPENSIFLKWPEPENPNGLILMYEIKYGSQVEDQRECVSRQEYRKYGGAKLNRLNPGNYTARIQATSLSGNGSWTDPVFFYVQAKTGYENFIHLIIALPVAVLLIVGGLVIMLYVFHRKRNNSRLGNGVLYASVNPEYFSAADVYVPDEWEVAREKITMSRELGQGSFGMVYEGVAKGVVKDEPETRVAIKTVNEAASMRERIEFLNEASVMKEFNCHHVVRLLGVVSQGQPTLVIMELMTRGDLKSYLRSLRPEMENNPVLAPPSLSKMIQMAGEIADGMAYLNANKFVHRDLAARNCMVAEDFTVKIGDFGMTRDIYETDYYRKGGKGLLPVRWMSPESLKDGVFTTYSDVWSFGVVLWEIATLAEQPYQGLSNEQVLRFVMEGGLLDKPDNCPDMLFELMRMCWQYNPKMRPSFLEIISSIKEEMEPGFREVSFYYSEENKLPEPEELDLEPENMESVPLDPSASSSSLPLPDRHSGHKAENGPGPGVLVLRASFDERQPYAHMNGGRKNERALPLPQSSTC

Sequence of CSK (P41240 whole entry): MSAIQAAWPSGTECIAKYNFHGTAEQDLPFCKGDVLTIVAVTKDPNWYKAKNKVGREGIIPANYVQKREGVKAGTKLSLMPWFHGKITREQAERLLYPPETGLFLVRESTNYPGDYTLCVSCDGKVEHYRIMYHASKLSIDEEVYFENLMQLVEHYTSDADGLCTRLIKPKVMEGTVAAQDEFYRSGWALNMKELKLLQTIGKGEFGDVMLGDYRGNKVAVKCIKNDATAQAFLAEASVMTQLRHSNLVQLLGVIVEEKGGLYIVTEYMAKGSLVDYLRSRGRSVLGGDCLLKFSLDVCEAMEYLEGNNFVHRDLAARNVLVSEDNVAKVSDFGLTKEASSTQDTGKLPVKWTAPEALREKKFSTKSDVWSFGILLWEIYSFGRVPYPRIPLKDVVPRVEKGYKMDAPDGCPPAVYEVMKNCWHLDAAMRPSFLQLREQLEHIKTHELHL
Sequence of HIPK3 (Q9H422 whole entry): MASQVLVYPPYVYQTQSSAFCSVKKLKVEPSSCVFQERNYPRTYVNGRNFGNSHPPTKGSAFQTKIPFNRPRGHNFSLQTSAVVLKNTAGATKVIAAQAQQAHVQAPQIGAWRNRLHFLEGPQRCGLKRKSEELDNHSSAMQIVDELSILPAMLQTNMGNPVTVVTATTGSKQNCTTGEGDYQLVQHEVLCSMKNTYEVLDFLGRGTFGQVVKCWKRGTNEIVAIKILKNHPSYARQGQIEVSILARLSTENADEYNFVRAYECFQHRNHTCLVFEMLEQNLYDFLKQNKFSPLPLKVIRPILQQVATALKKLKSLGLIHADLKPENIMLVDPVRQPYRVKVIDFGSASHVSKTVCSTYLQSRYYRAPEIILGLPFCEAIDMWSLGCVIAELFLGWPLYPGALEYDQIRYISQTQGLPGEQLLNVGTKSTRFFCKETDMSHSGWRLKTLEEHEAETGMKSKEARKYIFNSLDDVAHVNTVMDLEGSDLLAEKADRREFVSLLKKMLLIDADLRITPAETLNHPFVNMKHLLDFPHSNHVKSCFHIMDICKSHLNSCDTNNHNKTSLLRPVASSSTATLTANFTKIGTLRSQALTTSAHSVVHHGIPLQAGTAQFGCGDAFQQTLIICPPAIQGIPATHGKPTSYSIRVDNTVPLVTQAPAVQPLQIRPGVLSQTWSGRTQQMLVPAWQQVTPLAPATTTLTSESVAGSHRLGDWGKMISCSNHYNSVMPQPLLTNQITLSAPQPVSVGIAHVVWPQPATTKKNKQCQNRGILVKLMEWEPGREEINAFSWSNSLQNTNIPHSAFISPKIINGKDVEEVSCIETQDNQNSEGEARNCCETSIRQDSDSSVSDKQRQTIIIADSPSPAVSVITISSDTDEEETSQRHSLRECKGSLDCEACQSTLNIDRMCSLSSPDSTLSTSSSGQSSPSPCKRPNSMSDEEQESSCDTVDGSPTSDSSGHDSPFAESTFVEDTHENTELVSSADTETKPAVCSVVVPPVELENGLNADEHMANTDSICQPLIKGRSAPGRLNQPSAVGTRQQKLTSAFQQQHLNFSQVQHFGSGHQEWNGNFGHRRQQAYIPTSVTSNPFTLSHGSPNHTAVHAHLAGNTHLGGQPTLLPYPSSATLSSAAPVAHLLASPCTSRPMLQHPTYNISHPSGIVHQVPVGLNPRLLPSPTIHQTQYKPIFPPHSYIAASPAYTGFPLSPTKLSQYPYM

SMILES | Remaining protein kinase activity ([1]; 1 μM) [%] | Remaining protein kinase activity ([1]; 100 μM) [%] | remaining activity at 1 µM [2] [%] | remaining activity at 100 µM [2] [%] | remaining activity at 1 µM [3] [%] | remaining activity at 100 µM [3] [%] | remaining activity at 1 µM [4] [%] | remaining activity at 100 µM [4] [%] | remaining activity at 1 µM [5] [%] | remaining activity at 100 µM [5] [%] | remaining activity at 1 µM ([2]; ERK8, 1 μM) [%] | remaining activity at 100 µM ([2]; ERK8, 100 μM) [%] | remaining activity at 1 µM ([3]; PKD1, 1 μM) [%] | remaining activity at 100 µM ([3]; PKD1, 100 μM) [%] | remaining activity at 1 µM ([4]; HIPK3, 1 μM) [%] | remaining activity at 100 µM ([4]; HIPK3, 100 μM) [%] | remaining activity at 1 µM ([5]; IGF-1R, 1 μM) [%] | remaining activity at 100 µM ([5]; IGF-1R, 100 μM) [%]
COc1ccc2sc(-c3cncc(NC(C)=O)c3)nc2c1 [PST-001, N-(5-(5-Methoxybenzo[d]thiazol-2-yl)pyridin-3-yl)acetamide] | 121 | 126 | 89 | 28 | 103 | 92 | 123 | 100 | 104 | 104 | – | – | – | – | – | – | – | –
COc1ccc2sc(-c3cncc(N)c3)nc2c1 [compound 1, 5-(5-Methoxybenzo[d]thiazol-2-yl)pyridin-3-amine] | 116 | 78 | – | – | – | – | – | – | – | – | 86 | 4 | 94 | 23 | 120 | 28 | 96 | 68
